# Test system: p300
# Test: p300 protein and mRNA expression in LX-2
# Type: cell-based, human
# Description: A human HSC line (LX-2, Milipore, U.S.A.) was plated in a 6-well plate, and grown to confluency in DMEM supplemented with 1% penicillin-streptomycin (Hyclone, U.S.A.) and 2% fetal bovine serum (Hyclone, U.S.A.) at 37° C. in a 5% CO2 incubator. For a further experiment, the confluent HSC line was incubated in an FBS-free medium, instead of the 2% FBS-added medium.
# Sodium dodecylsulfate-polyacrylamide gel electrophoresis (SDS-PAGE) was performed using a gel electrophoresis device (Mighty Small SE 250, Hoefer Scientific Instruments, San Francisco) according to the method established by the inventors. A lysed cell fraction was diluted with a sample dilution buffer [63 mM Tris (pH. 6.8), 10% glycerol, 2% SDS, 0.0013% bromophenol blue, 5% β-mercaptoethanol], and subjected to electrophoresis in an electrode buffer (15 g Tris, 72 g glycerin and 5 g SDS contained in an 1 L solution) using a 8-12% gel. After electrophoresis, the gel was transferred to a nitrocellulose membrane to transfer proteins using an electrophoresis device for transfer in a transfer buffer (25 mM Tris, 192 mM glycerin, 20% v/v methanol (pH. 8.3)] at 40 mA for 3 hours. The nitrocellulose membrane was reacted with first antibodies, reacted with horseradish peroxidase-conjugated goat anti-rabbit IgG and horseradish peroxidase-conjugated goat anti-mouse IgG as secondary antibodies for 1 hour, and visualized using an ECL chemiluminescence system (Amersham, Gaithesberg, Mass.).
# Thereafter, in the present invention, the influence of the GPR119 ligand on p300 expression was observed. […] From the result, it was assumed that a decrease in the expression of the p300 protein due to the GPR119 ligand could be caused by proteasomal degradation, and therefore the expression of the p300 protein was observed using a proteasome inhibitor, which is MG132.
# [1] = LX-2 treated with ligand alone, FIG. 4h
structure (smiles),measurement,setting,value
"CCc1cnc(N2CCC(c3nc(COc4ccc(-n5cnnn5)cc4)cs3)CC2)nc1 [MBX-2982, 4-((4-(1H-tetrazol-1-yl)phenoxy)methyl)-2-(1-(5-ethylpyrimidin-2-yl)piperidin-4-yl)thiazole]",expression of the p300 protein,[1],reduced depending on the concentration
same,mRNA expression of p300,[1],no influence
same,"expression of the p300 protein decreased by ligand, with proteasome inhibitor MG132","with MG132 treatment, FIG. 4i",recovered

# From patent US9895370B2, “Pharmaceutical composition for preventing or treating of cirrhosis of liver comprising G protein coupled receptor 119 ligand as an active ingredient” (DONGGUK UNIVERSITY INDUSTRY—ACADEMIC COOPERATION FOUNDATION, priority 2015, dated 2018)
